In patent EP4707280A1, “1,4-CINEOLE DERIVATIVE AND INTERMEDIATE THEREOF, HERBICIDE CONTAINING SAID DERIVATIVE AS ACTIVE INGREDIENT, METHOD FOR USING HERBICIDE, AND METHOD FOR PREPARING AGROCHEMICAL COMPOSITION” (HOKKO CHEMICAL INDUSTRY CO., LTD., priority 2023, dated 2024):

Experiments:
Assay type in all cases: in vivo
[1] = test system: Monochoria vaginalis; assay: Test Example 1: herbicidal effect test by soil application in paddy rice; conditions: Pontederia vaginalis, soil, 336 h; 120 g active ingredient per 10 ares; applied immediately after sowing, flooded pots; 14 days after application; read-out: weed inhibition rate
Procedure, shortened: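 Pre-emergence test in puddled, flooded paddy soil (about 3 cm water), 30 seeds per weed sown at 0–1 cm depth in a glass greenhouse. Emulsifiable concentrate diluted in water and dropped onto the pots straight after sowing at 120 g a.i. per 10 ares. Weed inhibition (%) scored at 14 days, in duplicate.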

[2] = test system: Digitaria ciliaris; assay: Test Example 3: herbicidal effect test by soil application in upland field; conditions: Digitaria ciliaris, 120 g per 10 ares, sprayed one day after sowing, 14 days after application, read-out: weed inhibition rate
Procedure, shortened: (§1)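 Pre-emergence test: seeds mixed into top 1 cm of alluvial loam upland soil in pots; emulsifiable concentrate diluted in water sprayed on soil one day after sowing at 100 L/10 a, 120 g a.i./10 a. Weed inhibition rate (%) scored at 14 days, in duplicate.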

[3] = test system: Echinochloa crus-galli; assay: as above; conditions: Echinochloa crus-galli, 120 g per 10 ares, sprayed one day after sowing, 14 days after application, read-out: weed inhibition rate
Procedure, shortened: as §1

[4] = test system: Digitaria ciliaris; assay: Test Example 4: herbicidal effect test by stem and leaf treatment in upland field; conditions: Digitaria ciliaris; 120 g per 10 ares; sprayed seven days after sowing, upland soil; 14 days after application; read-out: weed inhibition rate
[5] = test system: Echinochloa crus-galli; assay: as above; conditions: Echinochloa crus-galli; 120 g per 10 ares; sprayed seven days after sowing, upland soil; 14 days after application; read-out: weed inhibition rate
[6] = test system: Echinochloa crus-galli var. formosensis; assay: Test Example 5: herbicidal effect test by soil application in paddy rice (low dose); conditions: Echinochloa crus-galli, soil, 336 h; 7.5 g per 10 ares; applied immediately after sowing, flooded pots; 14 days after application; read-out: weed inhibition rate
Procedure, shortened: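 Paddy soil in Wagner pots was fertilized (N:P:K 16:16:16), puddled, sown with 30 seeds per weed species at 0–1 cm, then flooded to ~3 cm in a glass greenhouse. Emulsifiable concentrate diluted in water was dropper-applied into floodwater immediately, at 7.5 g active ingredient per 10 ares; duplicates, scored at 14 days.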

[7] = test system: Digitaria ciliaris; assay: Test Example 8: herbicidal effect test by stem and leaf treatment in upland field (low dose); conditions: Digitaria ciliaris; 7.5 g per 10 ares; sprayed seven days after sowing, upland soil; 14 days after application; read-out: weed inhibition rate
[8] = test system: Echinochloa crus-galli; assay: as above; conditions: Echinochloa crus-galli; 7.5 g per 10 ares; sprayed seven days after sowing, upland soil; 14 days after application; read-out: weed inhibition rate

CC(C)[C@]12C[C@@H](OCc3ccc(Cl)cc3Cl)[C@](C)(C[C@@H]1Br)O2 [1-717, (1S,2R,4R,5S)-5-bromo-2-[(2,4-dichlorophenyl)methoxy]-1-methyl-4-isopropyl-7-oxabicyclo[2.2.1]heptane]
≥ 80%: pest or weed control at 1200 g/ha [1] | inhibition at 1200 g/ha [2] | inhibition at 1200 g/ha [3] | inhibition at 1200 g/ha [4] | inhibition at 1200 g/ha [5] | inhibition at 75 g/ha [6] | inhibition at 75 g/ha [7] | inhibition at 75 g/ha [8]

CCOC(C)O[C@H]1C[C@]2(C)O[C@@]1(C(C)C)C[C@H]2OCc1c(F)cccc1F (stereo partly drawn) [1-223, (1S,2R,4R,5S)-2-((2,6-difluorobenzyl)oxy)-5-(1-ethoxyethoxy)-4-isopropyl-1-methyl-7-oxabicyclo[2.2.1]heptane]
≥ 80%: pest or weed control at 1200 g/ha [1] | inhibition at 1200 g/ha [2] | inhibition at 1200 g/ha [3] | inhibition at 1200 g/ha [4] | inhibition at 1200 g/ha [5] | inhibition at 75 g/ha [6] | inhibition at 75 g/ha [8]

COC1(OC)C[C@]2(C)O[C@@]1(C(C)C)C[C@H]2OCc1ccccc1F [1-935, (1R,4S,5R)-5-((2-fluorobenzyl)oxy)-1-isopropyl-2,2-dimethoxy-4-methyl-7-oxabicyclo[2.2.1]heptane]
≥ 80%: pest or weed control at 1200 g/ha [1] | inhibition at 1200 g/ha [2] | inhibition at 1200 g/ha [3] | inhibition at 1200 g/ha [4] | inhibition at 1200 g/ha [5] | inhibition at 75 g/ha [6]

Cc1ccccc1CO[C@@H]1C[C@]2(C(C)C)O[C@@]1(C)C[C@@H]2Br [1-16, (1S,2R,4R,5S)-5-bromo-1-methyl-2-[(2-methylphenyl)methoxy]-4-isopropyl-7-oxabicyclo[2.2.1]heptane]
≥ 80%: pest or weed control at 1200 g/ha [1] | inhibition at 1200 g/ha [2] | inhibition at 1200 g/ha [3] | inhibition at 1200 g/ha [4] | inhibition at 1200 g/ha [5] | inhibition at 75 g/ha [6] | inhibition at 75 g/ha [7] | inhibition at 75 g/ha [8]

Cc1cccc(CO[C@@H]2C[C@]3(C(C)C)O[C@@]2(C)C[C@@H]3Br)c1 [1-680, (1S,2R,4R,5S)-5-bromo-1-methyl-2-[(3-methylphenyl)methoxy]-4-isopropyl-7-oxabicyclo[2.2.1]heptane]
≥ 80%: pest or weed control at 1200 g/ha [1] | inhibition at 1200 g/ha [2] | inhibition at 1200 g/ha [3] | inhibition at 1200 g/ha [4] | inhibition at 1200 g/ha [5] | inhibition at 75 g/ha [6] | inhibition at 75 g/ha [8]

CC(C)[C@]12C[C@@H](OCc3cc(F)ccc3F)[C@](C)(CC1=O)O2 [2-18, (1R,4S,5R)-5-((2,5-difluorobenzyl)oxy)-1-isopropyl-4-methyl-7-oxabicyclo[2.2.1]heptan-2-one]
≥ 80%: inhibition at 1200 g/ha [2] | inhibition at 1200 g/ha [3] | inhibition at 1200 g/ha [4] | inhibition at 1200 g/ha [5] | inhibition at 75 g/ha [6] | inhibition at 75 g/ha [7] | inhibition at 75 g/ha [8]

CC(C)[C@]12C[C@@H](OCc3c(F)cccc3F)[C@](C)(CC1C)O2 (stereo partly drawn) [1-111, (1S,2R,4R)-2-((2,6-difluorobenzyl)oxy)-4-isopropyl-1,5-dimethyl-7-oxabicyclo[2.2.1]heptane]
≥ 80%: pest or weed control at 1200 g/ha [1] | inhibition at 1200 g/ha [2] | inhibition at 1200 g/ha [3] | inhibition at 1200 g/ha [4] | inhibition at 1200 g/ha [5] | inhibition at 75 g/ha [6] | inhibition at 75 g/ha [7] | inhibition at 75 g/ha [8]

CCC1C[C@]2(C)O[C@@]1(C(C)C)C[C@H]2OCc1ccccc1C (stereo partly drawn) [1-123, (1R,4S,5R)-2-ethyl-1-isopropyl-4-methyl-5-((2-methylbenzyl)oxy)-7-oxabicyclo[2.2.1]heptane]
≥ 80%: pest or weed control at 1200 g/ha [1] | inhibition at 1200 g/ha [2] | inhibition at 1200 g/ha [3] | inhibition at 1200 g/ha [4] | inhibition at 1200 g/ha [5] | inhibition at 75 g/ha [6] | inhibition at 75 g/ha [7] | inhibition at 75 g/ha [8]

CC(C)[C@]12C[C@@H](OCc3ccc(F)cc3)[C@](C)(CC1=O)O2 [2-349, (1R,4S,5R)-5-((4-fluorobenzyl)oxy)-1-isopropyl-4-methyl-7-oxabicyclo[2.2.1]heptan-2-one]
≥ 80%: pest or weed control at 1200 g/ha [1] | inhibition at 1200 g/ha [2] | inhibition at 1200 g/ha [3] | inhibition at 1200 g/ha [4] | inhibition at 1200 g/ha [5] | inhibition at 75 g/ha [6] | inhibition at 75 g/ha [7] | inhibition at 75 g/ha [8]

CCC1C[C@]2(C)O[C@@]1(C(C)C)C[C@H]2OCc1ccccc1F (stereo partly drawn) [1-126, (1R,4S,5R)-2-ethyl-5-[(2-fluorobenzyl)oxy]-1-isopropyl-4-methyl-7-oxabicyclo[2.2.1]heptane]
≥ 80%: pest or weed control at 1200 g/ha [1] | inhibition at 1200 g/ha [2] | inhibition at 1200 g/ha [3] | inhibition at 1200 g/ha [4] | inhibition at 1200 g/ha [5] | inhibition at 75 g/ha [6] | inhibition at 75 g/ha [7] | inhibition at 75 g/ha [8]

CC(C)[C@]12C[C@@H](OCc3ccccc3C#N)[C@](C)(C[C@@H]1Br)O2 [1-703, 2-[[(1S,2R,4R,5S)-5-bromo-1-methyl-4-isopropyl-7-oxabicyclo[2.2.1]heptan-2-yl]oxymethyl]benzonitrile]
≥ 80%: pest or weed control at 1200 g/ha [1] | inhibition at 1200 g/ha [2] | inhibition at 1200 g/ha [3] | inhibition at 1200 g/ha [4] | inhibition at 1200 g/ha [5] | inhibition at 75 g/ha [6] | inhibition at 75 g/ha [7]

CC(C)[C@]12C[C@@H](OCc3c(F)cccc3Br)[C@](C)(C[C@@H]1Br)O2 [1-1600, (1S,2R,4R,5S)-5-bromo-2-[(2-bromo-6-fluorophenyl)methoxy]-1-methyl-4-isopropyl-7-oxabicyclo[2.2.1]heptane]
≥ 80%: pest or weed control at 1200 g/ha [1] | inhibition at 1200 g/ha [2] | inhibition at 1200 g/ha [3] | inhibition at 1200 g/ha [4] | inhibition at 1200 g/ha [5] | inhibition at 75 g/ha [6] | inhibition at 75 g/ha [7] | inhibition at 75 g/ha [8]

CC(C)[C@]12C[C@@H](OCc3ccc(Cl)cc3)[C@](C)(C[C@@H]1Br)O2 [1-693, (1S,2R,4R,5S)-5-bromo-2-[(4-chlorophenyl)methoxy]-1-methyl-4-isopropyl-7-oxabicyclo[2.2.1]heptane]
≥ 80%: pest or weed control at 1200 g/ha [1] | inhibition at 1200 g/ha [2] | inhibition at 1200 g/ha [3] | inhibition at 1200 g/ha [4] | inhibition at 1200 g/ha [5] | inhibition at 75 g/ha [6] | inhibition at 75 g/ha [8]

CC(C)[C@]12C[C@@H](OCc3c(Cl)cccc3Cl)[C@](C)(CC1=O)O2 [2-26, (1R,4S,5R)-5-((2,6-dichlorobenzyl)oxy)-1-isopropyl-4-methyl-7-oxabicyclo[2.2.1]heptan-2-one]
≥ 80%: pest or weed control at 1200 g/ha [1] | inhibition at 1200 g/ha [2] | inhibition at 1200 g/ha [3] | inhibition at 1200 g/ha [4] | inhibition at 1200 g/ha [5] | inhibition at 75 g/ha [6] | inhibition at 75 g/ha [7]

CCOC(C)O[C@H]1C[C@]2(C)O[C@@]1(C(C)C)C[C@H]2OCc1ccccc1C (stereo partly drawn) [1-208, (1R,2S,4S,5R)-2-(1-ethoxyethoxy)-1-isopropyl-4-methyl-5-((2-methylbenzyl)oxy)-7-oxabicyclo[2.2.1]heptane]
≥ 80%: pest or weed control at 1200 g/ha [1] | inhibition at 1200 g/ha [2] | inhibition at 1200 g/ha [3] | inhibition at 1200 g/ha [4] | inhibition at 1200 g/ha [5] | inhibition at 75 g/ha [6] | inhibition at 75 g/ha [8]
